# Measurements reported in US11835532B2, “Green concentrated reagent for hemotology systems” (priority 2018, dated 2023).
# Assay: Response of test reagent pools to osmolality, conductivity and pH adjusters
# Format: physicochemical
# Conditions: osmolality and conductivity adjuster added to working concentration reagent
# Protocol: Assays were performed to characterize the response of the test reagents according to Table 2 to adjustments targeting changes to the pH, osmolality and conductivity of the reagent test pools.
# Each of the test pools were adjusted for osmolality and conductivity with different chemicals, for example, sodium chloride, sodium sulfate, potassium sulfate, potassium bisulfate, imidazole and sodium phosphate monobasic. Adjusting for osmolality or conductivity parameters impacts all three parameters of pH, conductivity and osmolality.
# Variation of pH, conductivity and osmolality was observed by adding increasing amounts of each adjuster to a test reagent pool. Amounts of each adjuster to achieve target midpoint were established. The target pH, osmolality and conductivity were pH 7.02-7.20, target osmolality 315-360 mOsm/Kg, and target conductivity 19.05-20.00 mS/cm.
# All pH, conductivity and osmolality adjusters functioned as expected with no precipitation.
▴ Conductivity,▴ Osmolality,▴ pH/gm,Structure (SMILES)
+0.88 mS/cm/gm,+14.1 mOsm/kg/gm,+0.01,O=S(=O)([O-])[O-].[Na+].[Na+] [Sodium Sulfate]
+1.61 mS/cm/gm,+29.2 mOsm/kg/gm,0.00,[Cl-].[Na+] [Sodium Chloride]
+1.07 mS/cm/gm,+11.9 mOsm/kg/gm,+0.02,O=S(=O)([O-])[O-].[K+].[K+] [Potassium Sulfate]

# Same assay, conditions: pH adjuster added to working concentration reagent
Osmolality change per gram of adjuster,▴ Conductivity,▴ pH/gm,Structure (SMILES)
+12.0 mOsm/kg/gm,+0.46 mS/cm/gm,−0.14,O=P([O-])(O)O.[Na+] [Sodium Phosphate Mono]
+13.7 mOsm/kg/gm,+0.38 mS/cm/gm,+0.39,[Na+].[OH-] [50% Sodium Hydroxide]
+24.9 mOsm/kg/gm,+0.28 mS/cm/gm,+0.21,c1c[nH]cn1 [Imidazole]

Structure (SMILES),Osmolality change per gram of adjuster,▴ Conductivity,▴ pH/gm
Cl [6N Hydrochloric Acid],+7.0 mOsm/kg/gm,+0.33 mS/cm/gm,−0.16
